The target of one experiment is T1, D2 (Homo sapiens, UniProt P14416).
T1 construct: purchased NIMH PDSP
The experiment can be described thus: NIMH PDSP receptor binding, D2. The conditions noted are these: [3H]N-methylspiperone, read-out: % Inhibition of Binding at 10 µM D-473.

In a further experiment the target is T2, D3 (Homo sapiens, UniProt P35462).
T2 construct: purchased NIMH PDSP
The experiment can be described thus: NIMH PDSP receptor binding, D3. The note with it: [3H]N-methylspiperone, read-out: % Inhibition of Binding at 10 µM D-473.

The next experiment has as its target T3, 5HT1a (Homo sapiens, UniProt P08908).
T3 construct: purchased NIMH PDSP
The experiment can be described thus: NIMH PDSP receptor binding, 5HT1a. The note with it: [3H]8-OH-DPAT, read-out: % Inhibition of Binding at 10 µM D-473.

In another experiment the target is T4, 5HT1b (Homo sapiens, UniProt P28222).
T4 construct: purchased NIMH PDSP
Briefly: NIMH PDSP receptor binding, 5HT1b. The conditions noted are these: [3H]GR-125743, read-out: % Inhibition of Binding at 10 µM D-473.

The target of another experiment is T5, 5HT1d (Homo sapiens, UniProt P28221).
T5 construct: purchased NIMH PDSP
Briefly: NIMH PDSP receptor binding, 5HT1d. The conditions noted are these: [3H]GR-125743, read-out: % Inhibition of Binding at 10 µM D-473.

In a further experiment the target is T6, 5HT3 (Homo sapiens, UniProt P46098).
T6 construct: purchased NIMH PDSP
Briefly: NIMH PDSP receptor binding, 5HT3. The note with it: [3H] LY 278,584, read-out: % Inhibition of Binding at 10 µM D-473.

Another experiment concerns the target T7, 5HT6 (Homo sapiens, UniProt P50406).
T7 construct: purchased NIMH PDSP
Briefly: NIMH PDSP receptor binding, 5HT6. The conditions noted are these: [3H]LSD, read-out: % Inhibition of Binding at 10 µM D-473.

Another experiment relates to GABA A. The experiment can be described thus: NIMH PDSP receptor binding, GABA A. The conditions noted are these: [3H]Muscimol.
Another experiment deals with T8, Alpha2B (Homo sapiens, UniProt P18089).
T8 construct: purchased NIMH PDSP
The experiment can be described thus: NIMH PDSP receptor binding, Alpha2B. The conditions noted are these: [3H]Clonidine, read-out: % Inhibition of Binding at 10 µM D-473.

The next experiment concerns the target Alpha2C (Homo sapiens, UniProt P18825). Briefly: NIMH PDSP receptor binding, Alpha2C. The conditions noted are these: [3H]Clonidine.
The target in the next experiment is T9, Beta2 (Homo sapiens, UniProt P07550).
T9 construct: purchased NIMH PDSP
The experiment can be described thus: NIMH PDSP receptor binding, Beta2. The note with it: [125I]Iodopindolol, read-out: % Inhibition of Binding at 10 µM D-473.

In another experiment the target is T10, κ-opioid (Homo sapiens, UniProt P41145).
T10 construct: purchased NIMH PDSP
Briefly: NIMH PDSP receptor binding, κ-opioid. The conditions noted are these: [3H]Bremazocine, read-out: % Inhibition of Binding at 10 µM D-473.

The next experiment deals with T11, H3 (Homo sapiens, UniProt Q9Y5N1).
T11 construct: purchased NIMH PDSP
The experiment can be described thus: NIMH PDSP receptor binding, H3. The note with it: [3H]Alpha-methyl Histamine, read-out: % Inhibition of Binding at 10 µM D-473.

The target in the next experiment is T12, M5 (Homo sapiens, UniProt P08912).
T12 construct: purchased NIMH PDSP
The experiment can be described thus: biochemical. The conditions noted are these: read-out: % Inhibition of Binding at 10 µM D-473.

For experiment [1], the system named is locomotor activity (horizontal activity). The experiment can be described thus: Locomotor activity in rats. It counts as in vivo. The note with it: rat; 25 mg/kg oral; 2 h post administration; vs vehicle. As to the method:
Sprague Dawley Rats were tested at 25 mg/kg oral dose of D-473 to monitor changes in any locomotor activity in acrylic Auto-Track/Opto-Varimex-4 System (Columbus Instrument; Columbus, Ohio). The purpose was to evaluate locomotor activity of the same doses of drug that were used in the forced swim test. Rats were acclimated in the test chambers for 1 h prior to oral administration of D-473. Locomotor activity of the drug was measured for a total of two hour post administration of the drug which corresponded to the time of measurement in the forced swimming experiment. GBR 12909 was studied as a control drug known to stimulate and was administered i.p. as in published studies; vehicle was orally administered.

The test system of experiment [2] is CNS GPCR receptors and ion channels. Briefly: CNS broad receptors screening, summary statements by receptor family. It counts as binding.
For another experiment, the target named is hSERT (Homo sapiens, UniProt P31645). Briefly: Inhibition of [3H]5-HT uptake by cloned human SERT in HEK293 cells.

The values that follow come from PMC4245125, “Pharmacological and Behavioral Characterization of D-473, an Orally Active Triple Reuptake Inhibitor Targeting Dopamine, Serotonin and Norepinephrine Transporters” (PLoS ONE, 2014).

For orientation: inhibition means the drop in the measured response relative to a control, in per cent. Usually Ki stands for a dissociation constant, usually derived from enzyme kinetics or from competition with a known ligand.

Sequence of hSERT (P31645 whole entry): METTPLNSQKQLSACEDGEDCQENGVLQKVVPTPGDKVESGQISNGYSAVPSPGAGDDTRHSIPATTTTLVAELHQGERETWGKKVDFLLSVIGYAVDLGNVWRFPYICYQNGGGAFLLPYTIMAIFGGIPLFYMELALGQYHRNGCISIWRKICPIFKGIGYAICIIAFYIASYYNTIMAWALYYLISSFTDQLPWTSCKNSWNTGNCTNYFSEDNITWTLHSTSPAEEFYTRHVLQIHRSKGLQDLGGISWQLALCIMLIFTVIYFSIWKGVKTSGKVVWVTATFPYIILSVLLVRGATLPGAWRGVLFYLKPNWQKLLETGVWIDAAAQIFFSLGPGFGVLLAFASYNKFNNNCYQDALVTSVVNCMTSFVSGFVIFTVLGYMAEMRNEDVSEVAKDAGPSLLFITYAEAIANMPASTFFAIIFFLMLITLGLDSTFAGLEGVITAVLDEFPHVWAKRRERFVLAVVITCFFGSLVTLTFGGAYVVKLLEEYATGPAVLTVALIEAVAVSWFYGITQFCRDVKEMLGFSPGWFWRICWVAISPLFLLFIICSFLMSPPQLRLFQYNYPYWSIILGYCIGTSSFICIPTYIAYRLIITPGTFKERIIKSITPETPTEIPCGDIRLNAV
Sequence of Alpha2C (P18825 whole entry): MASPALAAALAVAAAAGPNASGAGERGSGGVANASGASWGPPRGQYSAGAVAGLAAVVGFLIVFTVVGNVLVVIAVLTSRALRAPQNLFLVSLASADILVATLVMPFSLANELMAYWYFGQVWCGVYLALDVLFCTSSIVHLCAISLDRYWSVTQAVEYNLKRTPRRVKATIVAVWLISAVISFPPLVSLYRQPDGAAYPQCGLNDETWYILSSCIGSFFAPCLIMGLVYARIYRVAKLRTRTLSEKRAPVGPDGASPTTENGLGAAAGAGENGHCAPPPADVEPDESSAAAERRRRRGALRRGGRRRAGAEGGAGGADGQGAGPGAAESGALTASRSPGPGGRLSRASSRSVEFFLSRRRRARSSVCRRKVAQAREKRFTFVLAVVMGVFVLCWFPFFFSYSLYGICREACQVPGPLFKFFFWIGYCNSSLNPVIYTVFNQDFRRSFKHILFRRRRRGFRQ
T6 sequence (P46098 24-478): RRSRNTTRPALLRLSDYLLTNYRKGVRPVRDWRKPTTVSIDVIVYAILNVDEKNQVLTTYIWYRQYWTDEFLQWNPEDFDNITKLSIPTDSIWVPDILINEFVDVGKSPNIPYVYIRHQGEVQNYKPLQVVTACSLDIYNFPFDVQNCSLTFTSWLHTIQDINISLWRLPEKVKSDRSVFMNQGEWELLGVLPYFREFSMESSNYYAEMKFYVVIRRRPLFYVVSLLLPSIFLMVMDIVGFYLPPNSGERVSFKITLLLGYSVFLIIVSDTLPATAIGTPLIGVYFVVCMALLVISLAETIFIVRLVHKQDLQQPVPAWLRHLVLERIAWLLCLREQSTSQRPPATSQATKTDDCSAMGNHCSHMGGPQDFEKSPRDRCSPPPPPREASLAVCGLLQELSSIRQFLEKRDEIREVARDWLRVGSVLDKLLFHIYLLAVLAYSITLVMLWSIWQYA
T1 sequence (P14416 whole entry): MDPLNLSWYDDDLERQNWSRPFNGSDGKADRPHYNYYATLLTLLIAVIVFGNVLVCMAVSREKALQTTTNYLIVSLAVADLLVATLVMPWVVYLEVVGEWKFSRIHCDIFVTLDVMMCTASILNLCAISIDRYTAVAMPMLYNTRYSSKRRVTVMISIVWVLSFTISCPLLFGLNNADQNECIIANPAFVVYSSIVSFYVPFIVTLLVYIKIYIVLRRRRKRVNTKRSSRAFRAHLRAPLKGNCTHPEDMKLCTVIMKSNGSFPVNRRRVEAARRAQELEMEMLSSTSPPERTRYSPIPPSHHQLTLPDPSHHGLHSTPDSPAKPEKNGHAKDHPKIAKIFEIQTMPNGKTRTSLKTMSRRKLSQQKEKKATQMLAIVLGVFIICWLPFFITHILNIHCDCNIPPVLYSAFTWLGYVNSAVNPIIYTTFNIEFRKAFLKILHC
T5 sequence (P28221 whole entry): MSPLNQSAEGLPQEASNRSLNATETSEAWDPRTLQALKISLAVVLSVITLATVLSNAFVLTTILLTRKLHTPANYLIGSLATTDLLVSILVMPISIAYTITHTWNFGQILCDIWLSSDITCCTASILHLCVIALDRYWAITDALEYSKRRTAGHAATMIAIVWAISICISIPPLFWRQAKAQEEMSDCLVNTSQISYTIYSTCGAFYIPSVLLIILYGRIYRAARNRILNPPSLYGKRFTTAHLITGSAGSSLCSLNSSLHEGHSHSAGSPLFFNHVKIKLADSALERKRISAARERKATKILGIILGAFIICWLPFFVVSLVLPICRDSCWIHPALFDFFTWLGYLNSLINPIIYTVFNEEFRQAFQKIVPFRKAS
T2 sequence (P35462 whole entry): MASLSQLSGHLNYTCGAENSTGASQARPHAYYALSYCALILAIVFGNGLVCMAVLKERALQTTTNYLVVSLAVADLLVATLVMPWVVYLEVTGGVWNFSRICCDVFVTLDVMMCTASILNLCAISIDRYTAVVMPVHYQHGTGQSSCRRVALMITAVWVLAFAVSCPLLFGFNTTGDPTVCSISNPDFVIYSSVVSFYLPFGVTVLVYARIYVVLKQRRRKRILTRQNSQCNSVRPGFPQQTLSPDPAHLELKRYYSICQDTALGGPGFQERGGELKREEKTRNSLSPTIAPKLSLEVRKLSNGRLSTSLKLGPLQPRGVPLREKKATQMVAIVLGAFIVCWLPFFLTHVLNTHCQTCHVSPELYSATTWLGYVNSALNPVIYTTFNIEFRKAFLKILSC
T7 sequence (P50406 whole entry): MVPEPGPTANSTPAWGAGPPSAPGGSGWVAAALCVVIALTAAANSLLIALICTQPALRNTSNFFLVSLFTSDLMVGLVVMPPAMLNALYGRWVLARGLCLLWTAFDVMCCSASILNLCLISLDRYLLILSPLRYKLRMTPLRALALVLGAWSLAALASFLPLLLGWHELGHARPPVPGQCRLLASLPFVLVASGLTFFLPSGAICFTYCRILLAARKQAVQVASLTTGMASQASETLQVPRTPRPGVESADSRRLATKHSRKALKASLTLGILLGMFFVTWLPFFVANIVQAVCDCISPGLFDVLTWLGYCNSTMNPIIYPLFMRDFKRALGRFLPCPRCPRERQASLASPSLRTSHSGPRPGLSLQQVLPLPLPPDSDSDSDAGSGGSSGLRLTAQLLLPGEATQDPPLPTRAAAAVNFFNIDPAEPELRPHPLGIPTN
T3 sequence (P08908 whole entry): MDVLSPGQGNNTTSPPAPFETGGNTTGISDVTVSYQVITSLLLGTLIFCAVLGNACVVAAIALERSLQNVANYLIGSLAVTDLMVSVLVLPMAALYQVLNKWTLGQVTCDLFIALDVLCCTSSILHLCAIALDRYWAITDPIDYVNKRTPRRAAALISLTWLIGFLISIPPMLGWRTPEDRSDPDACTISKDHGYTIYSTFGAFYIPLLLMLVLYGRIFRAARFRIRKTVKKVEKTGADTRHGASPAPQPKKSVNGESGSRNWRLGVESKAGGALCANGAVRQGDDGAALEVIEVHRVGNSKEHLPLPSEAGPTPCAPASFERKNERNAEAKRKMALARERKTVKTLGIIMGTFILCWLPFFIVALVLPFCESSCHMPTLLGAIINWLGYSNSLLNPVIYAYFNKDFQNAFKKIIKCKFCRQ
T12 sequence (P08912 whole entry): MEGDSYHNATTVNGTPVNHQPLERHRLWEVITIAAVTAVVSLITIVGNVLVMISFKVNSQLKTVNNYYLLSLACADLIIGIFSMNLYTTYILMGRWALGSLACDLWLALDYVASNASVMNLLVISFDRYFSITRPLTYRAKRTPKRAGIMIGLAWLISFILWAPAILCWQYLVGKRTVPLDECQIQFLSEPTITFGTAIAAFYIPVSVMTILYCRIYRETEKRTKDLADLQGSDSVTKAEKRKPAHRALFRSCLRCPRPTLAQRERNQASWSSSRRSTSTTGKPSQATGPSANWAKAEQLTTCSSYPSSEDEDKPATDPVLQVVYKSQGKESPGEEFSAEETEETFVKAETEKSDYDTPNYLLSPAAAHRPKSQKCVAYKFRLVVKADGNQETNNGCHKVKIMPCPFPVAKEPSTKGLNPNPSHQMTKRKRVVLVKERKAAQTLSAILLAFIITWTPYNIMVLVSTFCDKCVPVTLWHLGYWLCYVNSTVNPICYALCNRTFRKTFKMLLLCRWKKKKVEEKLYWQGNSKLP
T9 sequence (P07550 whole entry): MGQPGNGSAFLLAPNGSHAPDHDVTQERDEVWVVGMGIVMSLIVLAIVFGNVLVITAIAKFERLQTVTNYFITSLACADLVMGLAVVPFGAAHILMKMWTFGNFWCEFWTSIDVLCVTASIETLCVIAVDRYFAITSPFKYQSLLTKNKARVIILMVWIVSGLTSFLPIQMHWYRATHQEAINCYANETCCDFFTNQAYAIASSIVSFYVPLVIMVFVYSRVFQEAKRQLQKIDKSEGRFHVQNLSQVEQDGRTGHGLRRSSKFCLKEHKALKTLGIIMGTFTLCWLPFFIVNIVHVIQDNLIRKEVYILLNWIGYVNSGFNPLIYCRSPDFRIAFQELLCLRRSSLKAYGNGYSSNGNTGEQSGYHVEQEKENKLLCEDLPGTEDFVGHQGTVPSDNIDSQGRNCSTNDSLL
T4 sequence (P28222 whole entry): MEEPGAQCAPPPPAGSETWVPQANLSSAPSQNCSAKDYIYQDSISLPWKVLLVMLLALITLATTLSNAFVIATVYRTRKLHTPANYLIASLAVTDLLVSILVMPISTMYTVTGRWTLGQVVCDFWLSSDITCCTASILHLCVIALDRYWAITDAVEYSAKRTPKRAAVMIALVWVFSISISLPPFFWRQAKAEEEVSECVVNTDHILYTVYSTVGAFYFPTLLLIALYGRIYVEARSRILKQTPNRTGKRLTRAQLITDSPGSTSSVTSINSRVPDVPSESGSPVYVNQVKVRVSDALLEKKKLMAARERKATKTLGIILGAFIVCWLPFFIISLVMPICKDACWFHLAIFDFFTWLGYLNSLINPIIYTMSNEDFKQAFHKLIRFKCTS

In the case of `COc1ccc(CN[C@@H]2CO[C@H](C(c3ccc(F)cc3)c3ccc(F)cc3)C[C@H]2O)cc1` [Compound D-473, (2S,4R,5R)-2-(bis(4-fluorophenyl)methyl)-5-((4-methoxybenzyl)amino)tetrahydro-2H-pyran-4-ol], the inhibition at 10 µM at D2 amounted to 42.9%; at D3, 30.8%; on 5HT1a it was 35.4%; on 5HT1b it was 14.2%; on 5HT1d, 39%; at 5HT3 it was 3.5%. The inhibition at 10 µM is -11.4% at 5HT6; 25.4% at Alpha2B; 61% on Alpha2C (10 µM, read-out: % Inhibition of Binding at 10 µM D-473); -4.4% on Beta2; 48.5% on κ-opioid; -14.7% at H3. For the same compound, the inhibition at 10 µM at M5 is 3.2%. Also, the “% Inhibition of Binding at 10 µM D-473” value in the experiment on GABA A is recorded as 5.1%. Moreover, the inhibition constant Ki on Alpha2C (secondary assay, read-out: Ki for D-473) was over 10 µM; in experiment [2] (dopamine and serotonin receptor subtypes other than D1, D5, 5HT2b, read-out: Ki at dopamine and serotonin receptor subtypes (generally)) it was over 10 µM; at hSERT, 0.00918 ± 0.00169 µM. For the same compound, the “Locomotor activity (horizontal activity)” value in [1] is recorded as “statistically indistinguishable from vehicle”. Further, in [2], the “Affinity for alpha adrenergic or beta adrenergic receptors subtypes” value is reported as “did not show any appreciable affinity”. For the same compound, the “Affinity for muscarinic receptor subtypes” value in experiment [2] is listed as “Lack of any affinity”. For the same compound, in experiment [2], the “Affinity for opioid receptors, calcium channel and GABA receptor” value is on record as “did not show any affinity”. In addition, the “Potency at SERT relative to Fluoxetine” value at hSERT (hSERT uptake inhibition) was “almost one and a half fold greater”.
